Test system: HIV-1
Experiment: Resistance test vector (PHENOSENSE) phenotypic susceptibility assay, fold change in IC50, correlated with genotype (Fisher's Exact test, odds ratio)
Type: cell-based, human immunodeficiency virus type 1
Text: See Petropoulos et al., 2000, Antimicrob. Agents Chemother. 44:920-928; U.S. Pat. Nos. 5,837,464 and 6,242,187. PHENOSENSE™ is a phenotypic assay that achieves the benefits of phenotypic testing and overcomes the drawbacks of previous assays.
PHENOSENSE™ can obtain results with only one round of viral replication, thereby avoiding selection of subpopulations of virus that can occur during preparation of viral stocks required for assays that rely on fully infectious virus.
A resistance test vector (“RTV”) can then be constructed by incorporating the amplified viral gene sequences into a replication defective viral vector by using any method known in the art of incorporating gene sequences into a vector. In one embodiment, restrictions enzymes and conventional cloning methods are used. See Sambrook et al., 2001, Molecular Cloning: A Laboratory Manual, Cold Spring Harbor Laboratory, 3rd ed., NY; and Ausubel et al., 1989, Current Protocols in Molecular Biology, Greene Publishing Associates and Wiley Interscience, NY. In a preferred embodiment, ApaI and PinAI restriction enzymes are used. Preferably, the replication defective viral vector is the indicator gene viral vector (“IGVV”). In a preferred embodiment, the viral vector contains a means for detecting replication of the RTV. Preferably, the viral vector contains a luciferase expression cassette.
The assay can be performed by first co-transfecting host cells with RTV DNA and a plasmid that expresses the envelope proteins of another retrovirus, for example, amphotropic murine leukemia virus (MLV). Following transfection, viral particles can be harvested from the cell culture and used to infect fresh target cells in the presence of varying amounts of anti-viral drug(s). The completion of a single round of viral replication in the fresh target cells can be detected by the means for detecting replication contained in the vector. In a preferred embodiment, the completion of a single round of viral replication results in the production of luciferase. By monitoring the amount of, e.g., luciferase activity in the presence of the varying amounts of antiviral drug(s), a resistance curve can be constructed by plotting luciferase activity versus drug concentration. The susceptibility of an HIV, or population of HIV, can be determined by measuring the concentration of antiviral drug at which the luciferase activity detected is half-maximal. This number, the IC50, provides a standard and convenient measure of drug resistance.
Patient derived segment(s) corresponding to the HIV protease and reverse transcriptase coding regions were amplified by the reverse transcription polymerase chain reaction method (RT PCR) using viral RNA isolated from viral particles present in the plasma or serum of HIV infected individuals as follows. Viral RNA was isolated from the plasma or serum using oligo-dT magnetic beads (Dynal Biotech, Oslo, Norway), followed by washing and elution of viral RNA. The RT PCR protocol was divided into two steps. A retroviral reverse transcriptase (e.g. Moloney MuLV reverse transcriptase (Roche Molecular Systems, Inc., Branchburg, N.J.; Invitrogen, Carlsbad, Calif.), or avian myeloblastosis virus (AMV) reverse transcriptase, (Boehringer Mannheim, Indianapolis, Ind.) was used to copy viral RNA into cDNA. The cDNA was then amplified using a thermostable DNA polymerase (e.g. Taq (Roche Molecular Systems, Inc., Branchburg, N.J.), Tth (Roche Molecular Systems, Inc., Branchburg, N.J.), PRIMEZYME™ (isolated from Thermus brockianus, Biometra, Gottingen, Germany)) or a combination of thermostable polymerases as described for the performance of “long PCR” (Barnes, W.M., 1994, Proc. Natl. Acad. Sci, USA 91, 2216 20) (e.g. Expand High Fidelity PCR System (Taq+Pwo), (Boehringer Mannheim. Indianapolis, Ind.); GENEAMP XL™ PCR kit (Tth+Vent), (Roche Molecular Systems, Inc., Branchburg, N.J.); or […] II®, Clontech, Palo Alto, Calif.)

## CC(C)CN(C[C@@H](O)[C@H](Cc1ccccc1)NC(=O)O[C@H]1CO[C@H]2OCC[C@H]21)S(=O)(=O)c1ccc(N)cc1 [DRV, darunavir]
Mutation A71I in PR, reduced susceptibility (FC>2)
  Odds Ratio: 1.74
Mutation A71L in PR, reduced susceptibility (FC>2)
  Odds Ratio: 16.53
Mutation A71T in PR, increased susceptibility (Table 3)
  Odds Ratio: 0.74
Mutation A431I in gag, reduced susceptibility (FC>2)
  Odds Ratio: 5.60
Mutation A431V in gag, reduced susceptibility (FC>2)
  Odds Ratio: 1.94
Mutation C67F in PR, reduced susceptibility (FC>2)
  Odds Ratio: 3.72
Mutation C95F in PR, reduced susceptibility (FC>2)
  Odds Ratio: 3.13
Mutation D30N in PR, increased susceptibility (Table 3)
  Odds Ratio: 0.20
Mutation D425E in gag, reduced susceptibility (FC>2)
  Odds Ratio: 1.49
Mutation E35N in PR, reduced susceptibility (FC>2)
  Odds Ratio: 2.90
Mutation E428D in gag, reduced susceptibility (FC>2)
  Odds Ratio: 2.41
Mutation E467K in gag, reduced susceptibility (FC>2)
  Odds Ratio: 2.41
Mutation E468K in gag, reduced susceptibility (FC>2)
  Odds Ratio: 2.24
Mutation F53L in PR, reduced susceptibility (FC>2)
  Odds Ratio: 2.30
Mutation F53Y in PR, reduced susceptibility (FC>2)
  Odds Ratio: 3.43
Mutation F463L in gag, reduced susceptibility (FC>2)
  Odds Ratio: 1.68
Mutation F463S in gag, reduced susceptibility (FC>2)
  Odds Ratio: 3.18
Mutation F463V in gag, reduced susceptibility (FC>2)
  Odds Ratio: 2.89
Mutation F465L in gag, reduced susceptibility (FC>2)
  Odds Ratio: 1.66
Mutation F465S in gag, reduced susceptibility (FC>2)
  Odds Ratio: 2.45
Mutation G16A in PR, reduced susceptibility (FC>2)
  Odds Ratio: 3.73
Mutation G73A in PR, reduced susceptibility (FC>2)
  Odds Ratio: 8.81
Mutation G73C in PR, reduced susceptibility (FC>2)
  Odds Ratio: 2.24
Mutation G73T in PR, reduced susceptibility (FC>2)
  Odds Ratio: 7.84
Mutation H69R in PR, reduced susceptibility (FC>2)
  Odds Ratio: 2.59
Mutation H441Q in gag, reduced susceptibility (FC>2)
  Odds Ratio: 1.99
Mutation H441Y in gag, increased susceptibility (Table 3)
  Odds Ratio: 0.59
Mutation I13V in PR, reduced susceptibility (FC>2)
  Odds Ratio: 1.71
Mutation I15V in PR, reduced susceptibility (FC>2)
  Odds Ratio: 1.53
Mutation I47V in PR, reduced susceptibility (FC>2)
  Odds Ratio: 13.64
Mutation I50L in PR, increased susceptibility (Table 3)
  Odds Ratio: 0.12
Mutation I54A in PR, reduced susceptibility (FC>2)
  Odds Ratio: 2.37
Mutation I54L in PR, reduced susceptibility (FC>2)
  Odds Ratio: 5.50
Mutation I54M in PR, reduced susceptibility (FC>2)
  Odds Ratio: 14.47
Mutation I64L in PR, increased susceptibility (Table 3)
  Odds Ratio: 0.62
Mutation I64V in PR, increased susceptibility (Table 3)
  Odds Ratio: 0.84
Mutation I66F in PR, reduced susceptibility (FC>2)
  Odds Ratio: 3.25
Mutation I66V in PR, reduced susceptibility (FC>2)
  Odds Ratio: 4.86
Mutation I72L in PR, reduced susceptibility (FC>2)
  Odds Ratio: 3.02
Mutation I84V in PR, reduced susceptibility (FC>2)
  Odds Ratio: 7.06
Mutation I85V in PR, reduced susceptibility (FC>2)
  Odds Ratio: 2.76
Mutation I93L in PR, increased susceptibility (Table 3)
  Odds Ratio: 0.88
Mutation I437V in gag, reduced susceptibility (FC>2)
  Odds Ratio: 1.95
Mutation K20R in PR, reduced susceptibility (FC>2)
  Odds Ratio: 1.90
Mutation K20T in PR, reduced susceptibility (FC>2)
  Odds Ratio: 1.54
Mutation K20V in PR, reduced susceptibility (FC>2)
  Odds Ratio: 3.40
Mutation K43R in PR, increased susceptibility (Table 3)
  Odds Ratio: 0.30
Mutation K43T in PR, reduced susceptibility (FC>2)
  Odds Ratio: 3.72
Mutation K45R in PR, increased susceptibility (Table 3)
  Odds Ratio: 0.35
Mutation K55N in PR, reduced susceptibility (FC>2)
  Odds Ratio: 10.28
Mutation K55R in PR, reduced susceptibility (FC>2)
  Odds Ratio: 2.70
Mutation L10F in PR, reduced susceptibility (FC>2)
  Odds Ratio: 2.59
Mutation L19P in PR, reduced susceptibility (FC>2)
  Odds Ratio: 7.16
Mutation L23I in PR, reduced susceptibility (FC>2)
  Odds Ratio: 2.10
Mutation L24F in PR, reduced susceptibility (FC>2)
  Odds Ratio: 8.57
Mutation L33F in PR, reduced susceptibility (FC>2)
  Odds Ratio: 6.78
Mutation L63A in PR, increased susceptibility (Table 3)
  Odds Ratio: 0.53
Mutation L63Q in PR, increased susceptibility (Table 3)
  Odds Ratio: 0.49
Mutation L63S in PR, increased susceptibility (Table 3)
  Odds Ratio: 0.54
Mutation L76V in PR, reduced susceptibility (FC>2)
  Odds Ratio: 11.18
Mutation L89I in PR, reduced susceptibility (FC>2)
  Odds Ratio: 2.16
Mutation L89M in PR, reduced susceptibility (FC>2)
  Odds Ratio: 1.51
Mutation L89V in PR, reduced susceptibility (FC>2)
  Odds Ratio: 44.56
Mutation L449V in gag, reduced susceptibility (FC>2)
  Odds Ratio: 4.73
Mutation L486S in gag, increased susceptibility (Table 3)
  Odds Ratio: 0.51
Mutation M36L in PR, reduced susceptibility (FC>2)
  Odds Ratio: 2.20
Mutation M46I in PR, reduced susceptibility (FC>2)
  Odds Ratio: 1.92
Mutation M46L in PR, reduced susceptibility (FC>2)
  Odds Ratio: 1.60
Mutation N88D in PR, increased susceptibility (Table 3)
  Odds Ratio: 0.34
Mutation N88S in PR, increased susceptibility (Table 3)
  Odds Ratio: 0.17
Mutation P79A in PR, reduced susceptibility (FC>2)
  Odds Ratio: 5.35
Mutation P79S in PR, reduced susceptibility (FC>2)
  Odds Ratio: 4.96
Mutation P453L in gag, reduced susceptibility (FC>2)
  Odds Ratio: 1.80
Mutation P453V in gag, reduced susceptibility (FC>2)
  Odds Ratio: 6.86
Mutation P459T in gag, reduced susceptibility (FC>2)
  Odds Ratio: 1.69
Mutation Q58E in PR, reduced susceptibility (FC>2)
  Odds Ratio: 2.41
Mutation Q61N in PR, reduced susceptibility (FC>2)
  Odds Ratio: 2.48
Mutation R452K in gag, reduced susceptibility (FC>2)
  Odds Ratio: 2.99
Mutation R452S in gag, reduced susceptibility (FC>2)
  Odds Ratio: 3.92
Mutation S451N in gag, increased susceptibility (Table 3)
  Odds Ratio: 0.68
Mutation S451T in gag, reduced susceptibility (FC>2)
  Odds Ratio: 1.78
Mutation S462N in gag, reduced susceptibility (FC>2)
  Odds Ratio: 2.29
Mutation S488A in gag, reduced susceptibility (FC>2)
  Odds Ratio: 2.02
Mutation S498L in gag, increased susceptibility (Table 3)
  Odds Ratio: 0.48
Mutation S499L in gag, increased susceptibility (Table 3)
  Odds Ratio: 0.56
Mutation T4A in PR, reduced susceptibility (FC>2)
  Odds Ratio: 10.65
Mutation T4S in PR, reduced susceptibility (FC>2)
  Odds Ratio: 2.80
Mutation T12P in PR, reduced susceptibility (FC>2)
  Odds Ratio: 1.84
Mutation V11I in PR, reduced susceptibility (FC>2)
  Odds Ratio: 12.85
Mutation V32I in PR, reduced susceptibility (FC>2)
  Odds Ratio: 18.66
Mutation V77I in PR, increased susceptibility (Table 3)
  Odds Ratio: 0.64
Mutation V82A in PR, reduced susceptibility (FC>2)
  Odds Ratio: 1.12
Mutation V82C in PR, reduced susceptibility (FC>2)
  Odds Ratio: 3.67
Mutation V82F in PR, reduced susceptibility (FC>2)
  Odds Ratio: 5.47
Mutation V82I in PR, reduced susceptibility (FC>2)
  Odds Ratio: 2.31
Mutation V82L in PR, reduced susceptibility (FC>2)
  Odds Ratio: 5.44
Mutation V82T in PR, reduced susceptibility (FC>2)
  Odds Ratio: 1.84

— patent US20100227313A1, “Methods and Compositions for Determining Altered Susceptibility of HIV-1 to Protease Inhibitor Treatment” (priority 2007, published 2010)
